Values of other authors in PMC2764006 (Journal of molecular biology, 2009).

Conditions: single-molecule FRET

- persistence length lp: 44 Å
Substance: polyproline
